# Data from ChEMBL document CHEMBL3860054, “Design, synthesis and biological evaluation of novel alkyl diamine linked bivalent β-carbolines as angiogenesis inhibitors” (Bioorg Med Chem Lett, 2016).
# The source made the active and inactive calls. The calls are words filed in the database; no cut-off is given here.
# How the values were obtained:
# [1] = Antiproliferative activity against human EAhy926 cells assessed as reduction in cell viability measured after 48 hrs by MTT assay; format: functional, cell-based; conditions: EA.hy 926, 48 h
# [2] = Solubility of compound in water; format: physicochemical
# EA.hy 926 [3] = assay: Antiangiogenic activity in human EAhy926 cells assessed as inhibition of VEGF-induced cell migration measured after 24 hrs by wound healing assay relative to control; format: functional, cell-based
# EA.hy 926 [4] = assay: Antiangiogenic activity in human EAhy926 cells assessed as inhibition of VEGF-induced capillary-like tube formation on matrigel after 24 hrs by phase-contrast microscopy; format: functional, cell-based
# Gallus gallus = species: Gallus gallus; assay: Antiangiogenic activity in chicken chorioallantoic membrane at 30 uM/disc after 48 hrs by microscopic analysis; format: functional
Compound,IC50 [1] [µM],solubility [2] [µg/mL],inhibition (EA.hy 926 [3]),inhibition (EA.hy 926 [4]),Activity (Gallus gallus)
Cl.c1ccc(CCCn2c3ccccc3c3cc(CNCCCCNCc4cc5c6ccccc6n(CCCc6ccccc6)c5cn4)ncc32)cc1,4.18,> 10000,,,
CCn1c2ccccc2c2cc(CNCCCCNCc3cc4c5ccccc5n(CC)c4cn3)ncc21.Cl,> 10,> 10000,,,
CC(C)Cn1c2ccccc2c2cc(CNCCCCCCNCc3cc4c5ccccc5n(CC(C)C)c4cn3)ncc21.Cl,6.3,> 10000,,,
Cl.Fc1ccc(Cn2c3ccccc3c3cc(CNCCCCCNCc4cc5c6ccccc6n(Cc6ccc(F)cc6)c5cn4)ncc32)cc1,4.14,> 10000,,,
Cl.c1ccc(Cn2c3ccccc3c3cc(CNCCCNCc4cc5c6ccccc6n(Cc6ccccc6)c5cn4)ncc32)cc1,> 10,> 10000,,,
Cc1nc(CNCCCCNCc2cc3c4ccccc4n(Cc4cccc(Cl)c4)c3c(C)n2)cc2c3ccccc3n(Cc3cccc(Cl)c3)c12.Cl,4.81,> 10000,,,
Cl.Fc1ccc(Cn2c3ccccc3c3cc(CNCCCCCCNCc4cc5c6ccccc6n(Cc6ccc(F)cc6)c5cn4)ncc32)cc1,4.08,> 10000,,,
CCCCn1c2ccccc2c2cc(CNCCCCCCNCc3cc4c5ccccc5n(CCCC)c4cn3)ncc21.Cl,4.82,> 10000,,,
CCCCCCCCn1c2ccccc2c2cc(CNCCCCNCc3cc4c5ccccc5n(CCCCCCCC)c4cn3)ncc21.Cl,4.86,> 10000,,,
Cc1nc(CNCCCCNCc2cc3c4ccccc4n(CCCc4ccccc4)c3c(C)n2)cc2c3ccccc3n(CCCc3ccccc3)c12.Cl,2.11,> 10000,,,
COc1ccc(/C=C\c2cc(OC)c(OC)c(OC)c2)cc1OP(=O)(O)O [FOSBRETABULIN],6.4,,,,
CC(C)Cn1c2ccccc2c2cc(CNCCCCNCc3cc4c5ccccc5n(CC(C)C)c4cn3)ncc21.Cl,3.08,> 10000,,,
CCCCn1c2ccccc2c2cc(CNCCCCNCc3cc4c5ccccc5n(CCCC)c4cn3)ncc21.Cl,2.17,> 10000,,,
Cl.Clc1cccc(Cn2c3ccccc3c3cc(CNCCCCCCNCc4cc5c6ccccc6n(Cc6cccc(Cl)c6)c5cn4)ncc32)c1,2.98,> 10000,,,
CCCCn1c2ccccc2c2cc(CNCCCNCc3cc4c5ccccc5n(CCCC)c4cn3)ncc21.Cl,> 10,> 10000,,,
CCCCn1c2ccccc2c2cc(CNCCCCCCNCc3cc4c5ccccc5n(CCCC)c4c(C)n3)nc(C)c21.Cl,2.74,> 10000,,,
Cl.c1ccc(CCCn2c3ccccc3c3cc(CNCCCCCCNCc4cc5c6ccccc6n(CCCc6ccccc6)c5cn4)ncc32)cc1,2.35,> 10000,,,
Cc1nc(CNCCCCCCNCc2cc3c4ccccc4n(Cc4ccccc4)c3c(C)n2)cc2c3ccccc3n(Cc3ccccc3)c12.Cl,1.39,> 10000,,,
CC(C)n1c2ccccc2c2cc(CNCCCCCCNCc3cc4c5ccccc5n(C(C)C)c4cn3)ncc21.Cl,2.74,> 10000,,,
CCCCCCCCn1c2ccccc2c2cc(CNCCCCCNCc3cc4c5ccccc5n(CCCCCCCC)c4cn3)ncc21.Cl,3.77,> 10000,,,
Cl.Clc1cccc(Cn2c3ccccc3c3cc(CNCCCCCNCc4cc5c6ccccc6n(Cc6cccc(Cl)c6)c5cn4)ncc32)c1,1.06 to 1.1,> 10000,Dose-dependent effect,Dose-dependent effect,Active
Cc1nc(CNCCCCCCNCc2cc3c4ccccc4n(CC(C)C)c3c(C)n2)cc2c3ccccc3n(CC(C)C)c12.Cl,2.68,> 10000,,,
CCn1c2ccccc2c2cc(CNCCCCCCNCc3cc4c5ccccc5n(CC)c4cn3)ncc21.Cl,2.59,> 10000,,,
Cl.Clc1cccc(Cn2c3ccccc3c3cc(CNCCCCNCc4cc5c6ccccc6n(Cc6cccc(Cl)c6)c5cn4)ncc32)c1,6.86,> 10000,,,
CC(C)n1c2ccccc2c2cc(CNCCCCNCc3cc4c5ccccc5n(C(C)C)c4cn3)ncc21.Cl,2.48,> 10000,,,
Cl.c1ccc(Cn2c3ccccc3c3cc(CNCCCCCCNCc4cc5c6ccccc6n(Cc6ccccc6)c5cn4)ncc32)cc1,4.76,> 10000,,,
Cl.Cn1c2ccccc2c2cc(CNCCCCCCNCc3cc4c5ccccc5n(C)c4cn3)ncc21,2.58,> 10000,,,
